Experimental data published in patent US11053281B2, “Peptoid affinity ligands” (MIKE-ANN, LLC, priority 2016, dated 2021).
Like-named read-outs stand apart in the source and are kept apart here. *1 amine or outer side, *2 acyl side, *3 side chain or, on linkers, in order; H or OH if unused. Where a SMILES comes first, the peptide text is derived from it. [ ]: non-standard residue; d: D form. Gly(N(CH2)2(3-indolyl)) = O=C(O)CNCCc1c[nH]c2ccccc12; N(2-mercaptoethyl)Gly = O=C(CN(CCS[*:3])[*:1])[*:2]; NGly(CH2(3-pyridyl)) = O=C(O)CNCc1cccnc1; N(CH2CH2COOH)Gly = O=C(O)CCNCC(=O)O; Gly(N(CH2)3NH2) = NCCCNCC(=O)O; Cysteamide = C(CS[*:3])N[*:1]; NPrGly = CCCNCC(=O)O; Sar = CNCC(=O)O

Test system: polyclonal human IgG
Test: Adsorption isotherm of peptoid affinity resins against polyclonal human IgG
Format: binding
Parameters: Qmax: unit not given here
Details: for Qmax: maximum capacity (qmax) of resin from isotherm fit; for Kd: peptoid ligand conjugated to chromatographic resin, IgG in PBS, hyperbola fit of isotherm, Kd given in molar, read-out: Kd x 10^−6
Description: The affinity for the peptoid-resin combinations was determined by measuring the adsorption isotherm of each resin against polyclonal human IgG (Pakimna et al., J Applied Sci., 12(11): 1136-1141, 2012). Briefly, 0.050 mL of 50% resin slurry was pipetted into 6 individual wells of a 96-well filter plate (0.45 micron, PVDF, Harvard Apparatus). The resin was washed with 2×250 μL PBS using a vacuum manifold. To an individual well, 0.25 mL of a human polyclonal IgG solution at different concentrations (10, 5, 2.5, 1.25, 0.625, and 0.3125 mg/mL) was added. The resin/IgG suspension was agitated gently on a rocking table for 30 minutes. The fluid was then collected via vacuum, and the resin was washed with 0.25 mL of PBS. The filtrate and wash were then analyzed by the BCA assay to determine the residual IgG concentration relative to the starting concentration of the solution.
The equilibrium concentrations were then used to determine the capacity of the resin at each IgG concentration using the following formula: q=Volumesample×(Initial Concentration−Equilibrium Concentration)/Volumeresin
A plot of q versus equilibrium concentration was generated and the data fit with a hyperbola to determine the affinity constant (Kd) and the maximum capacity (qmax) according to the below formula, where C=the equilibrium concentration of antibody in solution: q=qmax×C/(kd+C) Typical adsorption isotherm is shown in FIG. 2. Tabulated Kd and qmax data is found in Table 2.

Question: What does the source list for `CCCN(CC(=O)N(CCc1c[nH]c2ccccc12)CC(=O)NCCS)C(=O)CN(CCc1c[nH]c2ccccc12)C(=O)CN(C)C(=O)CN(Cc1cccnc1)C(=O)CN(CCSC)C(=O)CNCc1cccnc1` [Ligand 16-64-2] (H-[NGly(CH2(3-pyridyl))][N(2-mercaptoethyl)Gly](Me)[NGly(CH2(3-pyridyl))][Sar][Gly(N(CH2)2(3-indolyl))][NPrGly][Gly(N(CH2)2(3-indolyl))]-Cysteamide)?
Answer: Qmax (Table 3): 49; Kd (Table 3): 5.5 µM

Question: With `CCCN(CC(=O)N(CCCN)CC(=O)N(CC(=O)N(CCC(=O)O)CC(=O)N(C)CC(=O)NCCS)Cc1cccnc1)C(=O)CN(CCC(=O)O)C(=O)CNCc1cccnc1` [Ligand 16-75-1] (H-[NGly(CH2(3-pyridyl))][N(CH2CH2COOH)Gly][NPrGly][Gly(N(CH2)3NH2)][NGly(CH2(3-pyridyl))][N(CH2CH2COOH)Gly][Sar]-Cysteamide) as the molecule, how does the Qmax (Table 3) read?
Answer: The Qmax was 33.

Question: What about the Kd (Table 3) of the same molecule?
Answer: Its Kd is 18 µM.

Question: What does the source list for `NC(=O)NCCCN(CC(=O)N(CCc1c[nH]c2ccccc12)CC(=O)N(CC(=O)NCCS)Cc1cccnc1)C(=O)CNCCc1c[nH]c2ccccc12` [Ligand 16-75-5]?
Answer: Qmax (Table 2): 44; Kd (Table 2): 4.3 µM

Question: What does the source list for `NCCCNCC(=O)N(CC(=O)N(CCc1c[nH]c2ccccc12)CC(=O)N(CCc1c[nH]c2ccccc12)CC(=O)NCCS)Cc1cccnc1` [Ligand 16-82-3] (H-[Gly(N(CH2)3NH2)][NGly(CH2(3-pyridyl))][Gly(N(CH2)2(3-indolyl))][Gly(N(CH2)2(3-indolyl))]-Cysteamide)?
Answer: Qmax (Table 2): 47; Kd (Table 2): 2.5 µM
